# Data from US20260242350A1, “POLYCYCLIC THYROID HORMONE BETA RECEPTOR AGONIST AND USE THEREOF” (CASCADE PHARMACEUTICALS, INC., priority 2023, published 2026).
# What was measured:
# [1] = target: T1, THRα LBD (His-GST-dLBT-THRα LBD) (Homo sapiens, UniProt P10827); assay: THR-FRET (time-resolved fluorescence resonance energy transfer) agonist activity assay, THRα; format: biochemical; settings: 24 h at room temperature
# T1 construct: made in house; host or cells: E. coli BL21 (DE3)
# T1 sequence (P10827 163-407 isoform P10827-2): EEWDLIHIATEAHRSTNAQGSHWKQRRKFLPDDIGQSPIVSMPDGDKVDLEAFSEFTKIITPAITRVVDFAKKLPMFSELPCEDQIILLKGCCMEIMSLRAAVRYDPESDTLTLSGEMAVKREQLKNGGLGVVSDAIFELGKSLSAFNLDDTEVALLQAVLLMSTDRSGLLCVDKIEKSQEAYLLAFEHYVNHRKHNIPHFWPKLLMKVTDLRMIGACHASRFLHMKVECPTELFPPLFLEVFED
# Text: (§1) Experimental Example 1: Detection of Agonist Activities of Compounds Against THRα/β Based on Time-Resolved Fluorescence Resonance Energy Transfer (THR-FRET)
# (§2) 1. Construction of THRα/β Overexpression Vectors
# (§3) By visiting NCBI, the THRα/β LBD domain sequences were found. The pET21-His-GST-dLBT-THRα LBD and pET21-His-GST-dLBT-THRβLBD overexpression vectors were constructed by the fusion method, and sequenced to confirm the accuracy of the sequences.
# (§4) 2. Prokaryotic Expression of Recombinant Proteins in E. coli
# (§5) The THRα LBD and THRβLBD overexpression vectors confirmed by sequencing were transfected into E. coli cells BL21 (DE3), and spread on an ampicillin-resistant agar plate. Monoclones were picked out and amplified in an LB medium, and transferred into 1 L LB at a ratio of 1:100 for large-scale culture. When the OD value was at 0.8 to 1.2, 0.5 mM isopropyl-beta-D-thiogalactopyranoside (IPTG) was added, and induced overnight at 18° C. The bacteria were harvested, disrupted, and purified via the GST column and the molecular sieve to obtain two proteins His-GST-dLBT-THRα LBD and His-GST-dLBT-THRβLBD.
# (§6) 3. Preparation of Compounds and Formulation of Reaction System
# (§7) The proteins were taken out from a refrigerator at −80° C. The protein s with the GST-tagged THRα/p LBD domain and the Eu-labelled GST antibodies were thawed slowly on ice, and an assay buffer containing a final concentration of 5 mM dithiothreitol (DTT) was formulated.
# (§8) 3.1 Preparation of Compounds
# (§9) The starting concentration of the compound was 10 μM (in DMSO). The compound (100 μM in DMSO) was subjected to 3-fold isogradient dilution with DMSO to obtain a total of 11 isogradient concentrations. Subsequently, the above compounds at the isogradient concentration were further subjected to 50-fold dilution with an assay buffer containing 5 mM DTT.
# (§10) 3.2 Formulation of THR-FRET Reaction System
# (§11) The final concentrations of all components were calculated based on a system with a final volume of 20 µL per well. To […] of assay buffer containing 5 mM DTT, the GST-tagged THRα/β proteins, the SRC2 ([…]) polypeptide, XL665 (Cisobio, #610SAXLB), and the Eu-labeled GST antibody were added, and the final concentrations were 2 nM, 200 nM, 0.05 nM, and 7.6 nM respectively to formulate 18 μL of reaction mixture of the proteins, polypeptide, and antibody per well.
# (§12) 18 μL of reaction mixture and 2 μL of diluted compound were added into an optiplate-384-well plate, and reacted at room temperature for 24 h.
# (§13) The plate was read using an MD i3x multi-mode microplate reader with the excitation and emission wavelengths of 340 nm and 665 nm, respectively. The intensity of light at a wavelength of 616 nm generated by europium excited by 340 nm wavelength light from the MD i3x multi-mode microplate reader was used as the background. According to the different activation degrees of different compounds against THRα and THRβ, the intensity of the emission light at a wavelength of 665 nm generated by exciting XL665 with the exciting light at a wavelength of 616 nm was varied. The intensity ratio between these two light wavelengths (665 nm, 616 nm) was used as the activation activity of the compound against THRα or THRβ, and was normalized against the ratio in the vehicle DMSO group. The dose-response curve was fitted with four parameters using the GraphPad Prism 6.0 software, and the EC50 value was calculated.
# [2] = target: T2, THRβ LBD (His-GST-dLBT-THRβLBD) (Homo sapiens, UniProt P10828); assay: THR-FRET (time-resolved fluorescence resonance energy transfer) agonist activity assay, THRβ; format: biochemical; settings: for EC50: 24 h at room temperature; for Selectivity (THRα/THRβ): ratio of EC50 THRα/THRβ
# T2 construct: made in house; host or cells: E. coli BL21 (DE3)
# T2 sequence (P10828 217-461 limits assumed): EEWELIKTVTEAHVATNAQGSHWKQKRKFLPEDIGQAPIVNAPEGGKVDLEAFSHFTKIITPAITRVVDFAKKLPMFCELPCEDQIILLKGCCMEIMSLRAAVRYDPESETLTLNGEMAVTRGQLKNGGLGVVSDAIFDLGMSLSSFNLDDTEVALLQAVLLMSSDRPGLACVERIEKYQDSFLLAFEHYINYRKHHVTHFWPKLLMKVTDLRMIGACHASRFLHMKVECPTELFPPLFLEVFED
# Text: as §1, §2, §3, §4, §5, §6, §7, §8, §9, §10, §11, §12, §13
# THRβ (pGAL4-THRβ-LBD) = target: T3, THRβ (pGAL4-THRβ-LBD) (Homo sapiens, UniProt P10828); assay: Reporter gene (Dual-Glo luciferase) agonist activity assay in HEK293T cells, THRβ; format: cell-based; settings: ratio of EC50 THRα/THRβ
# T3 construct: expressed in transfected cells; host or cells: HEK293T
# T3 sequence (P10828 217-461): T2 sequence (P10828 217-461 limits assumed)
# Text: Experimental Example 2: Detection of Agonist Activities of Compounds Against THRα and THRβ Based on Reporter Gene Activity Assay Method
# 1.1 Construction and Preparation of Plasmids pGAL4-THR-LBD and pG5-Luc
# The pGAL4-THRα-LBD and pGAL4-THRβ-LBD plasmids used in the reporter gene assay system were constructed by a conventional molecular cloning method comprising the following main steps: the cDNA sequences of THRα (NM_003250) and THRβ(NM_000461) corresponding to the amino acid sequences of THRα (163-407AA) and THRβ(217-461AA) were inserted into the BamHI and NotI enzyme digestion sites of the pGAL4 vector by the PCR technique respectively to obtain the pGAL4-THRα-LBD and pGAL4-THRβ-LBD plasmids; the pG5-Luc (#E249A) and pRL-TK (#E2241) plasmids were purchased from Promega; the plasmids were transfected into the E. coli DH5a by the CaCl2 method, and after further culture and amplification, the plasmids were purified by Plasmid Extraction Kits (TIANGEN, #D107) to obtain the corresponding plasmid DNAs.
# 1.2 Co-Transfection of Plasmids into HEK293T Cells and Treatment with Compounds
# The HEK293T cells were inoculated into a 96-well plate at a density of 1×10^4/well the day before plasmid transfection. Cell transfection was conducted according to the instructions of the transfection reagent FuGENE® HD (Promega, #E2311). The main steps were as follows: taking one well as an example here, the plasmids pGAL4-THRα-LBD or pGAL4-THRβ-LBD, pG5-Luc, and pRL-TK were added in the proportions of 20 ng, 50 ng, and 5 ng to 10 μL of Opti-MEM™ I medium (Gibco, #11058021) and mixed well; subsequently, 0.25 μL of FuGENE® HD was added, mixed well, and then left at room temperature for 5 min; afterwards, […] was added to the cell wells containing 100 μL of culture medium. After cell co-transfection for 6 h, the compound was diluted in a 3-fold gradient with dimethyl sulfoxide at the highest concentration of 1 μM. The compound was added to the cell culture medium at a total of 10 concentrations for treatment for 24 h. There were a total of two duplicate wells for each concentration. Triiodothyronine (T3) was used as the positive control.
# 1.3 Dual-Glo Luciferase Assay
# After the cells were treated with the compound for 24 h, the cells were assayed according to the instructions of Dual-Glo® Luciferase Assay System (Promega, #E2940). The main steps were as follows: 50 μL of culture medium was aspirated from each well and discarded, and then 50 μL of Dual-Glo® Luciferase reagent was added and oscillated at room temperature for 10 min; 80 μL of lysis reaction solution was measured into a white opaque optiPlate-96-well plate, and the luminescence signal value (Firefly-Luc) of the Firefly luciferase was detected using an MD i3x multi-mode microplate reader; 40 μL of Dual-Glo® Stop & Glo® reagent was then added, and oscillated at room temperature for 10 min; the luminescence signal value (Renilla-Luc) of the Renilla luciferase was then detected using an MD i3x multi-mode microplate reader. The Firefly-Luc/Renilla-Luc ratio was used as the activation activity of the compound against THR, and was normalized against the ratio in the vehicle DMSO group; the dose-response curve was fitted with four parameters using the GraphPad Prism6.0 software, and the EC50 value was calculated.
SMILES,EC50 [1] [nM],EC50 [2] [nM],Selectivity (THRα/THRβ) [2],Selectivity (THRα/THRβ) (THRβ (pGAL4-THRβ-LBD))
O=C(O)CNc1cc(Cl)c(Cn2ccc(=O)c3ccccc32)c(Cl)c1 [Compound 60],100 to 1000,100 to 1000,†† (10 > THRα/β > 1),–
O=c1ccn(Cc2c(Cl)cc(NCc3nnn[nH]3)cc2Cl)c2ccccc12 [Compound 65],100 to 1000,< 50,††† (THRα/β ≥ 10),–
O=c1[nH]c(=O)n(-c2cc(Cl)c(Cn3ccc(=O)c4ccccc43)c(Br)c2)nc1C(F)F [Compound 30],100 to 1000,< 50,†† (10 > THRα/β > 1),†††† (THRα/β > 20)
Cc1cccc2c1c(=O)ccn2Cc1c(Cl)cc(-n2ncc(=O)[nH]c2=O)cc1Br [Compound 17],100 to 1000,< 50,†† (10 > THRα/β > 1),††† (20 ≥ THRα/β > 10)
O=c1cnn(-c2cc(Cl)c(Cn3ccc(=O)c4cc(Br)ccc43)c(Cl)c2)c(=O)[nH]1 [Compound 7],–,–,–,† (5 ≥ THRα/β)
[2H]C(c1c(Br)cc(-n2nc(C(F)F)c(=O)[nH]c2=O)cc1Br)n1ccc(=O)c2ccccc21 (stereo not drawn) [Compound 72],50 to 100,< 50,†† (10 > THRα/β > 1),††† (20 ≥ THRα/β > 10)
Nc1nn(-c2cc(Cl)c(Cn3ccc(=O)c4ccccc43)c(Cl)c2)c(=O)[nH]c1=O [Compound 32],1000 to 10000,100 to 1000,†† (10 > THRα/β > 1),† (5 ≥ THRα/β)
O=c1cnn(-c2cc(Cl)c(Cn3ccc(=O)c4cc(F)ccc43)c(Cl)c2)c(=O)[nH]1 [Compound 5],–,–,–,† (5 ≥ THRα/β)
O=c1cnn(-c2cc(Cl)c(Cn3ccc(=O)c4cc(OC(F)(F)F)ccc43)c(Cl)c2)c(=O)[nH]1 [Compound 8],–,–,–,† (5 ≥ THRα/β)
O=c1cnn(-c2cc(Cl)c(Cn3ccc(=O)c4ccc(Cl)cc43)c(Cl)c2)c(=O)[nH]1 [Compound 12],–,–,–,† (5 ≥ THRα/β)
O=c1cnn(-c2cc(Cl)c(Cn3ccc(=O)c4cc(Cl)ccc43)c(Cl)c2)c(=O)[nH]1 [Compound 6],–,–,–,† (5 ≥ THRα/β)
Cn1nc(-c2cc(Cl)c(Cn3ccc(=O)c4ccccc43)c(Cl)c2)c(=O)[nH]c1=O [Compound 51],–,–,–,† (5 ≥ THRα/β)
COC(=O)c1cc2c(=O)ccn(Cc3c(Cl)cc(-n4ncc(=O)[nH]c4=O)cc3Cl)c2cc1OC [Compound 27],–,–,–,† (5 ≥ THRα/β)
O=c1[nH]nc(CNc2cc(Cl)c(Cn3ccc(=O)c4ccccc43)c(Cl)c2)o1 [Compound 63],1000 to 10000,100 to 1000,†† (10 > THRα/β > 1),–
O=C(O)C(=O)Nc1cc(Cl)c(Cn2ccc(=O)c3ccccc32)c(Cl)c1 [Compound 62],100 to 1000,50 to 100,†† (10 > THRα/β > 1),–
O=c1ccn(Cc2c(Cl)cc(OCc3nnn[nH]3)cc2Cl)c2ccccc12 [Compound 59],100 to 1000,100 to 1000,†† (10 > THRα/β > 1),–
O=C(Nc1cc(Cl)c(Cn2ccc(=O)c3ccccc32)c(Cl)c1)c1noc(=O)[nH]1 [Compound 66],1000 to 10000,100 to 1000,††† (THRα/β ≥ 10),–
O=c1[nH]c(COc2cc(Cl)c(Cn3ccc(=O)c4ccccc43)c(Cl)c2)no1 [Compound 58],100 to 1000,100 to 1000,†† (10 > THRα/β > 1),–
O=C(O)CC(=O)Nc1cc(Cl)c(Cn2ccc(=O)c3ccccc32)c(Cl)c1 [Compound 61],1000 to 10000,100 to 1000,†† (10 > THRα/β > 1),–
N#Cc1nn(-c2cc(Cl)c(Cn3ccc(=O)c4ccccc43)c(Cl)c2)c(=O)[nH]c1=O [Compound 31],1000 to 10000,100 to 1000,†† (10 > THRα/β > 1),–
CCOC(=O)c1cn(Cc2c(Cl)cc(-n3ncc(=O)[nH]c3=O)cc2Cl)c2ccccc2c1=O [Compound 21],–,–,–,† (5 ≥ THRα/β)
O=c1[nH]c(CNc2cc(Cl)c(Cn3ccc(=O)c4ccccc43)c(Cl)c2)no1 [Compound 64],100 to 1000,50 to 100,†† (10 > THRα/β > 1),–
C#Cc1nn(-c2cc(Cl)c(Cn3ccc(=O)c4ccccc43)c(Cl)c2)c(=O)[nH]c1=O [Compound 40],100 to 1000,50 to 100,†† (10 > THRα/β > 1),–
